Data from US11432549B2, “Carbamoyl triazolinone based herbicide combinations and method of use” (Arysta LifeScience Corporation, priority 2009, dated 2022).
Read-outs that look alike come from different tables or passages of the source.

Key:
Green Foxtail = experiment: Ex 5/7 greenhouse spray, bleaching/injury ratings; format: in vivo; details: Green Foxtail
Procedure: (§1) Containers were watered as needed based on species and water usage. The greenhouse was heated to keep temperatures above 50° F. (10° C.) and ventilated as needed to keep temperatures below 100° F. (38° C.). Typical daytime temperatures in the greenhouse were 80-90° F. (27-32° C.) and nighttime temperatures were between 50-60° F. (10-16° C.). The soil employed was Promix BX potting soil. Overall moisture conditions were normal and the closest weather station was on-site. Conditions and equipment employed in this Example are tabulated below in Tables 5-1 and 5-2.
(§2) All containers were moved outdoors from the greenhouse and arranged in blocks by treatment for the herbicide applications. A single spray application was applied to each block containing four repetitions of each species for each treatment. Plants were then immediately returned to the greenhouse and irrigated with approximately ¼″ water 1-3 hrs after treatment with a hose end sprayer. Only the Poa plants were trimmed with scissors two days prior to treatment at a height of approximately 3 inches.
(§3) Referring to FIGS. 2A-B, 3A-C, 4A-C, and 5A-D, all ratings of injury or bleaching are based on a scale from 1 to 9. […] Any bleaching measurement 4 and above was considered unacceptable for desirable turf species. In injury measurements, 1 indicates no injury while 9 indicates a dead plant. Any injury measurement 4 and above was considered unacceptable for desirable turf species). Density correlates with percent cover where 1 indicates no grass while 9 indicates a full pot.
(§4) Replications employed include 4, Untreated treatments: 1, Design: Randomized Complete Block, Treatment units: US standard, Treated plot size Width: 4 feet, Treated plot size Length: 4 feet, Application volume: 50 gal/ac, Mix size: 0.5562 liters, Mix overage: 100%, Format definitions: G-All7.DEF, G-All7.FRM.
(§5) In evaluating synergism, the data from Example 5 above were converted to % of control. This was done based on the data provided on a 1-9 scale detailed in Example 5. Expected values were computed from the % of control data by the formula for expected control=[…], where A is the % of control value for herbicide A alone and B is the % of control value for herbicide B alone.

Poa annua = experiment: Ex 5/7 greenhouse spray, bleaching/injury ratings; format: in vivo; details: Poa
Procedure: as §1, §2
(§6) Transplanted tillering Kentucky Bluegrass was 5 to 6 months old, transplanted Poa annua was 5 to 6 months old. Tall fescue was seeded into the crabgrass pots. St. Augustine plants (Floratam and Saphire) were shipped from Port St. Lucie, Fla. Only two replicates of Saphire St. Augustine grass were used due to plant availability.
as §3, §4, §5

Crabgrass sp. = experiment: Ex 5/7 greenhouse spray, bleaching/injury/density ratings; format: in vivo; details: Crabgrass
Procedure: as §1, §2, §6, §3, §4, §5

St. Augustine-Floratum = details: St. Augustine Floratam
Procedure: as §1, §2, §6, §3, §4, §5

St. Augustine-Sapphire = details: in vivo
Procedure: as §1, §2, §6, §3, §4, §5

Digitaria ciliaris = experiment: Ex 1 pot test, visual % damage; format: in vivo
[1] = Days After First/Last Applic. 41 41, Trt-Eval Interval 31 DA-A

Compound: CC(C)c1nn(C(=O)NC(C)(C)C)c(=O)n1N [2 Amicarbazone]
- Injury (Green Foxtail; 6 DA-A): 1.5 f
- Injury (Green Foxtail; 7 DA-A): 1.5 c
- Bleaching (Green Foxtail; 10 DA-A): 1.0 c
- Bleaching (Green Foxtail; 14 DA-A): 1
- Injury (Green Foxtail; 14 DA-A): 1.3
- Bleaching (Green Foxtail; 16 DA-A): 1
- Injury (Green Foxtail; 16 DA-A): 1.8
- Bleaching (Green Foxtail; 20 DA-A): 1.3 c
- Injury (Green Foxtail; 20 DA-A): 1.8
- Injury (Green Foxtail; 24 DA-A): 2
- Bleaching (Green Foxtail; 31 DA-A): 3.0 a
- Injury (Green Foxtail; 31 DA-A): 2.8
- Bleaching (Poa annua; 6 DA-A): 1.0 a
- Bleaching (Poa annua; 7 DA-A): 1.0 a
- Injury (Poa annua; 10 DA-A): 1.0 e
- Bleaching (Poa annua; 14 DA-A): 1.0 b
- Injury (Poa annua; 14 DA-A): 1.8
- Bleaching (Poa annua; 16 DA-A): 1.0 b
- Injury (Poa annua; 16 DA-A): 2.5
- Bleaching (Poa annua; 20 DA-A): 1.0 a
- Injury (Poa annua; 20 DA-A): 2.5
- Injury (Poa annua; 24 DA-A): 2.5 cd
- Injury (Poa annua; 31 DA-A): 3.3 c
- Injury (Poa annua; [1]): 3.8 c
- Bleaching (Crabgrass sp.; 6 DA-A): 1.3 f
- Injury (Crabgrass sp.; 6 DA-A): 1.5
- Bleaching (Crabgrass sp.; 7 DA-A): 1.0 c
- Injury (Crabgrass sp.; 7 DA-A): 1.0 e
- Bleaching (Crabgrass sp.; 10 DA-A): 1.0 c
- Bleaching (Crabgrass sp.; 14 DA-A): 1.0 c
- Injury (Crabgrass sp.; 14 DA-A): 1
- Bleaching (Crabgrass sp.; 16 DA-A): 1.3 c
- Injury (Crabgrass sp.; 16 DA-A): 1.3
- Bleaching (Crabgrass sp.; 20 DA-A): 1.3
- Injury (Crabgrass sp.; 20 DA-A): 1.3 c
- % Crab Cvr (Crabgrass sp.; 24 DA-A): 7.8 a %
- Injury (Crabgrass sp.; 24 DA-A): 1.5 c
- % Crab Cvr (Crabgrass sp.; 31 DA-A): 8.3 a %
- Bleaching (Crabgrass sp.; 31 DA-A): 1.0 b
- % Crab Cvr (Crabgrass sp.; 41 DA-A): 9.0 a %
- Bleaching (Crabgrass sp.; 41 DA-A): 1.0 a
- Bleaching (St. Augustine-Floratum; 6 DA-A): 1.0 a
- Bleaching (St. Augustine-Floratum; 7 DA-A): 1.0 c
- Bleaching (St. Augustine-Floratum; 10 DA-A): 1.0 c
- Bleaching (St. Augustine-Floratum; 14 DA-A): 1.0 c
- Bleaching (St. Augustine-Floratum; 16 DA-A): 1.0 e
- Bleaching (St. Augustine-Floratum; 20 DA-A): 1.0 b
- Bleaching (St. Augustine-Floratum; 31 DA-A): 1.0 c
- Bleaching (St. Augustine-Floratum; [1]): 1.0 a
- TurfQuality (St. Augustine-Floratum; [1]): 6.8 bc
- TurfQuality (St. Augustine-Sapphire): 7.0 a

Compound: CCc1cccc(C)c1N(COC(C)C)C(=O)CCl [Propisochlor, 2-chloro-N-(2-ethyl-6-methylphenyl)-N-[(1-methylethoxy)methyl]acetamide]
- weeding effect index (Digitaria ciliaris; 5 DAT, all tested dose rate, one-leaf stage): less than 50%
- percentage control (Digitaria ciliaris; single application 50 g/ha, 5 DAT): 28%
- percentage control (Digitaria ciliaris; single application 50 g/ha, 8 DAT): 70%
- percentage control (Digitaria ciliaris; single application 50 g/ha, 14 DAT): 76%
- percentage control (Digitaria ciliaris; single application 50 g/ha, 21 DAT): 88%
- percentage control (Digitaria ciliaris; single application 50 g/ha, 28 DAT): 82%
- percentage control (Digitaria ciliaris; single application 100 g/ha, 5 DAT): 42%
- percentage control (Digitaria ciliaris; single application 100 g/ha, 8 DAT): 78%
- percentage control (Digitaria ciliaris; single application 100 g/ha, 14 DAT): 86%
- percentage control (Digitaria ciliaris; single application 100 g/ha, 21 DAT): 94%
- percentage control (Digitaria ciliaris; single application 100 g/ha, 28 DAT): 92%
- percentage control (Digitaria ciliaris; single application 200 g/ha, 5 DAT): 44%
- percentage control (Digitaria ciliaris; single application 200 g/ha, 8 DAT): 80%
- percentage control (Digitaria ciliaris; single application 200 g/ha, 14 DAT): 90%
- percentage control (Digitaria ciliaris; single application 200 g/ha, 21 DAT): 98%
- percentage control (Digitaria ciliaris; single application 200 g/ha, 28 DAT): 98%

Compound: CC(C)c1nn(C(=O)NC(C)(C)C)c(=O)n1N [3 Amicarbazone]
- Injury (Green Foxtail; 6 DA-A): 3.8 de
- Injury (Green Foxtail; 7 DA-A): 3.5 b
- Bleaching (Green Foxtail; 10 DA-A): 1.0 c
- Bleaching (Green Foxtail; 14 DA-A): 1
- Injury (Green Foxtail; 14 DA-A): 2.5 f
- Bleaching (Green Foxtail; 16 DA-A): 1
- Injury (Green Foxtail; 16 DA-A): 2.8 cd
- Bleaching (Green Foxtail; 20 DA-A): 1.3 c
- Injury (Green Foxtail; 20 DA-A): 3.5 cd
- Injury (Green Foxtail; 24 DA-A): 3.8 c
- Bleaching (Green Foxtail; 31 DA-A): 3.3 a
- Injury (Green Foxtail; 31 DA-A): 5.3 bc
- Bleaching (Poa annua; 6 DA-A): 1.0 a
- Bleaching (Poa annua; 7 DA-A): 1.0 a
- Injury (Poa annua; 10 DA-A): 3.5 bc
- Bleaching (Poa annua; 14 DA-A): 1.8 b
- Injury (Poa annua; 14 DA-A): 4.8 b
- Bleaching (Poa annua; 16 DA-A): 2.0 ab
- Injury (Poa annua; 16 DA-A): 5.0 bc
- Bleaching (Poa annua; 20 DA-A): 2.0 a
- Injury (Poa annua; 20 DA-A): 5.5 c
- Injury (Poa annua; 24 DA-A): 5.3 b
- Injury (Poa annua; 31 DA-A): 7.0 ab
- Injury (Poa annua; [1]): 7.5 ab
- Bleaching (Crabgrass sp.; 6 DA-A): 1.0 f
- Injury (Crabgrass sp.; 6 DA-A): 1
- Bleaching (Crabgrass sp.; 7 DA-A): 1.0 c
- Injury (Crabgrass sp.; 7 DA-A): 1.0 e
- Bleaching (Crabgrass sp.; 10 DA-A): 1.0 c
- Bleaching (Crabgrass sp.; 14 DA-A): 1.0 c
- Injury (Crabgrass sp.; 14 DA-A): 1
- Bleaching (Crabgrass sp.; 16 DA-A): 1.0 c
- Injury (Crabgrass sp.; 16 DA-A): 1.5
- Bleaching (Crabgrass sp.; 20 DA-A): 1
- Injury (Crabgrass sp.; 20 DA-A): 1.5 c
- % Crab Cvr (Crabgrass sp.; 24 DA-A): 6.3 b %
- Injury (Crabgrass sp.; 24 DA-A): 1.5 c
- % Crab Cvr (Crabgrass sp.; 31 DA-A): 6.3 b %
- Bleaching (Crabgrass sp.; 31 DA-A): 1.0 b
- % Crab Cvr (Crabgrass sp.; 41 DA-A): 6.8 b %
- Bleaching (Crabgrass sp.; 41 DA-A): 1.0 a
- Bleaching (St. Augustine-Floratum; 6 DA-A): 1.0 a
- Bleaching (St. Augustine-Floratum; 7 DA-A): 1.0 c
- Bleaching (St. Augustine-Floratum; 10 DA-A): 1.0 c
- Bleaching (St. Augustine-Floratum; 14 DA-A): 1.0 c
- Bleaching (St. Augustine-Floratum; 16 DA-A): 1.3 e
- Bleaching (St. Augustine-Floratum; 20 DA-A): 1.3 b
- Bleaching (St. Augustine-Floratum; 31 DA-A): 1.0 c
- Bleaching (St. Augustine-Floratum; [1]): 1.0 a
- TurfQuality (St. Augustine-Floratum; [1]): 7.3 ab
- TurfQuality (St. Augustine-Sapphire): 7.5 a
